Source: PMC10947113, “A Bivalent Activatable Fluorescent Probe for Screening and Intravital Imaging of Chemotherapy‐Induced Cancer Cell Death” (Angewandte Chemie (Weinheim an Der Bergstrasse, Germany), 2021)

What was measured:
[1] = test system: breast cancer cells (MMTV-PyMT, MDA-MB231, MCF7); assay: Dose-dependency study in breast cancer cell lines; format: cell-based, mouse and human
Description: First, all drugs were tested in the 8 different cell lines to determine the percentages of Apotracker Red‐stained apoptotic cells compared to no treatment (Figure 3 c; Figure S8). […] From this screen, we decided to select 5 drugs with potent pro‐apoptotic response in breast cancer, the most diagnosed cancer worldwide.[25] […] From group 2, we selected cyclophosphamide, tamoxifen, and 5‐fluorouracil as pro‐apoptotic molecules. […] All 5 drugs were tested at multiple concentrations (from 1 to 100 μM) and with incubation times up to 48 h to examine whether drugs could block cell proliferation at late stages (Figures S9–S13).
Figure 4 Apotracker Red detects dose‐dependent chemotherapeutic‐induced apoptosis in mouse and human breast cancer cell lines. Cells were plated with 1 μM CV, treated with increasing concentrations (0, 1, 3, 10, 30 and 100 μM) of selected drugs for 48 h, and stained with Apotracker Red (150 nM) before data acquisition. Drugs: tamoxifen (beige), cisplatin (black), 5‐fluorouracil (green), gemcitabine (pink) and cyclophosphamide (red). Data presented as mean±SEM of 3 independent experiments.
Edinburgh. Human peripheral blood neutrophils were isolated as previously described.[3] Briefly, whole blood was drawn into tubes containing anti -coagulant 3.6% sodium citrate (final concentration: 0.4% (w/v)) and centrifuged at 350 g for 20 min at r.t. with lowest acceleration and no brake. Platelet-rich plasma was rem oved, and leukocytes separated from erythrocytes by 0.6% dextran sedimentation in saline for 30 min at r.t. […]
were centrifuged (300 g, 5 min, r.t.), washed once with PBS before addition of 0.05% Trypsin, 0.02% ethylenediaminetetraacetic acid (EDTA) in Hank’s balanced salt solution (HBSS) and incubation at 37°C for 5 min. […] Histograms and mean fluorescence intensities of apoptotic cells were measured on a 5L LSR flow cytometer under the following excitation/emission filters: Apotracker Red (561/610 nm), Annexin V-AF647 (647 /670 nm).
Data were acquired using the FACS Diva software and analysed using the FlowJo X software. […]

[2] = test system: 8 cancer cell lines; assay: Classification of drugs by Apotracker Red (apoptosis) and CellTrace Violet (proliferation) staining; format: cell-based; conditions: 8 cancer cell lines, 24 h treatment, flow cytometry
Description: To corroborate the versatility of Apotracker Red, we built a screening platform including a total of 8 cancer cell lines of variable origin and pathogenesis: breast (MCF7, MDA‐MB231 and MMTV‐PyMT (mouse mammary tumour virus‐polyoma middle tumour‐antigen)[23]), lung (A549), prostate (PC3 and LnCap), blood cells (Jurkat) and colon (HT29). All cell lines were cultured under standard conditions and seeded with the fluorescent proliferation marker CellTrace^TM Violet (CV) in 96‐well plates (10–20×10^3 cells/well) for high‐throughput flow cytometry. After drug treatment (i.e., drug addition plus 24 h incubation), Apotracker Red was incubated for 10 min and fluorescence readings were directly acquired without any additional processing steps (Figure 3 a). […] Using this platform, we tested a collection of FDA‐approved drugs in all cancer cell lines and compared their ability to induce apoptosis using Apotracker Red as the reporter. Specifically, we included DNA alkylation agents (e.g., cyclophosphamide, cisplatin, 5‐fluorouracil, gemcitabine, temozolomide), proteasomal and mitotic inhibitors (e.g., bortezomib, docetaxel, paclitaxel) and antagonists of specific proteins (e.g., dexamethasone, tamoxifen; Figure 3 b).
First, all drugs were tested in the 8 different cell lines to determine the percentages of Apotracker Red‐stained apoptotic cells compared to no treatment (Figure 3 c; Figure S8). […] All 5 drugs were tested at multiple concentrations (from 1 to 100 μM) and with incubation times up to 48 h to examine whether drugs could block cell proliferation at late stages (Figures S9–S13).
Figure S8. Heatmap of relative inhibition of cell proliferation (as indicated by staining of CellTraceTM Violet) after treatment of cancer cell lines with different drugs. Data presented as an average of 3 independent experiments. Cells were stained on day 0 with CellTraceTM Violet (1 µM) and mean fluorescence intensities were determined on the 5L LSR after 24 h of treatment with the different drugs. […]
Cell culture. MCF-7, A549, LnCap, MDA-MB-231, Jurkat T cells and PC3 cells were obtained from American Type Culture Collection (ATCC). HT29 cells were purchased from Merck (S i g m a Aldrich, UK). Mouse Mammary Tumour Virus –Polyoma Middle T antigen (MMTV -PyMT) cells were provided by the lab of Mikala Egeblad (CSHL, US). MMTV-PyMT, MCF-7, LnCap, MDA-MB-231 and Jurkat T cells were cultured in Roswell Park Memorial Institute (RPMI) 1640 Medium supplemented with 10% fetal bovine serum (FBS) , 100 U mL-1 penicillin and 0.1 mg mL-1 streptomycin. A549 and PC3 cells were cultured in Dublecco’s modified Eagle’s medium (DMEM) supplemented with 10% fetal bovine serum (FBS), 100 U mL-1 penicillin and 0.1 mg […]
Flow cytometry drug screen.

Structure (SMILES): N.N.[Cl][Pt][Cl] [cisplatin]
- percentages of Apotracker Red staining across all breast cancer cells, dose-dependency study ([1]; 1 to 100 μM, 48 h, Apotracker Red 150 nM, 3 independent experiments): highest percentages of Apotracker Red staining
- ratios of proliferation blockage, dose-dependency study ([1]; CellTrace Violet 1 μM, drugs 1 to 100 μM, up to 48 h): highest ratios of proliferation blockage
- drug group by Apotracker Red (apoptosis) and CV (proliferation) staining [2]: induced apoptosis and decreased cell proliferation
